Reference: patent US20040253261A1, “Biological compositions and methods for treatment of pancreatic cancer” (priority 2003, published 2004)
Like-named read-outs stand apart in the source and are kept apart here.

How the values were obtained:
[1] = system: pancreatic cancer tumor cells; conditions: for Number of live animals remaining in the groups after 30 days of treatment: 30 mice per group
Method: (§1) The survival time of mice after tumor injection and treatment was studied.
(§2) The biological composition comprising 10^8 cells per ml of activated and conditioned yeast cells of the strain Saccharomyces cerevisiae Hansen strain IFFI 1413 was prepared by the methods described in Section 5.1 and subsections therein.
The animals were prepared in a similar manner as described in Section 6.1.
The mice injected with tumor cells were divided into 4 experimental groups of ten mice per group and one control group. The four experimental groups were triplicated (i.e., using a total of 120 mice in the experimental groups). In group 2AY, the mice received 0.3 ml of the biological composition once per day. In group 2NY, the mice received 0.3 ml of the untreated yeast cells once per day. In group 2VDS, the mice were injected intravenously with 3 mg of vindesine (VDS) per kg body weight once a week for four weeks. In group 2CK1, the mice received 0.3 ml of physiological saline once per day.
The mice received the biological compositions, untreated yeast cells, VDS or saline on the same day as the tumor cells were transplanted. The mice in group 2CK2 also started receiving saline on the same day as the other four groups. The biological compositions, untreated yeast cells and saline were administered orally by a feeding tube and the VDS by intravenous injection for 30 consecutive days. The mice were observed over 6 months from the day of tumor inoculation and survival was recorded. The weight of the mice as well as the weight of the tumor were determined by standard techniques.

[2] = system: pancreatic cancer tumor cells; assay: BALB/c mouse model of human pancreatic cancer, growth of tumors; conditions: tumor-bearing BALB/c mice, 30 consecutive days of treatment, sacrificed on 31st day from tumor inoculation
Method: as §2
The mice injected with tumor cells were divided into 4 experimental groups of ten mice per group and one control group. The four experimental groups were triplicated (i.e., using a total of 120 mice in the experimental groups).
The mice in group CK2 also started receiving saline on the same day as the other four groups. The biological compositions, untreated yeast cells and saline were administered orally by a feeding tube and the VDS by intravenous injection for 30 consecutive days.

[3] = system: mouse pancreatic cancer cell line MPC-83; conditions: for Number of live animals remaining in the groups after 30 days of treatment: 30 mice per group
Method: as §1
The biological composition comprising 10^8 per ml of activated and conditioned yeast cells of the strain Saccharomyces cerevisiae Hansen strain IFFI 1413 was prepared by the methods described in Section 5.1 and subsections therein.
The animals were prepared in a similar manner as described in Section 8.1.
The mice injected with tumor cells were kept for 5 days and were divided into 4 experimental groups of ten mice per group and one control group. The four experimental groups were triplicated (i.e., using a total of 120 mice in the experimental groups). In group 2AY, the mice received 0.5 ml of the biological composition once per day. In group 2NY, the mice received 0.5 ml of the untreated yeast cells once per day. In group 2MMC, the mice were injected intravenously with 1.5×10^5 units of mitomycin C (MMC) per kg body weight per day. In group 2CK1, the mice received 0.5 ml of physiological saline once per day.
The mice received the biological compositions, untreated yeast cells, MMC or saline on the same day as the tumor cells were transplanted. The mice in group 2CK2 also started receiving saline on the same day as the other four groups. The biological compositions, untreated yeast cells and saline were administered orally by a feeding tube and the MMC by intravenous injection for 30 consecutive days. The mice were observed over 6 months from the day of tumor inoculation and survival was recorded. The weight of the mice as well as the weight of the tumor were determined by standard techniques.

[4] = system: mouse pancreatic cancer cell line MPC-83; assay: kun ming mouse model of pancreatic cancer (MPC-83), growth of tumors; conditions: MPC-83-bearing kun ming mice, 30 consecutive days of treatment, sacrificed on 31st day from tumor inoculation
Method: as §2
The mice injected with tumor cells were kept for 5 days and were divided into 4 experimental groups of ten mice per group and one control group. The four experimental groups were triplicated (i.e., using a total of 120 mice in the experimental groups).
The mice received the biological compositions, untreated yeast cells, MMC or saline on the same day as the tumor cells were transplanted. The mice in group CK2 also started receiving saline on the same day as the other four groups. The biological compositions, untreated yeast cells and saline were administered orally by a feeding tube and the MMC by intravenous injection for 30 consecutive days.

[5] = 0 month after cessation of treatment
[6] = 1 month after cessation of treatment
[7] = 2 months after cessation of treatment
[8] = 3 months after cessation of treatment
[9] = 4 months after cessation of treatment
[10] = 5 months after cessation of treatment
[11] = 6 months after cessation of treatment
[12] = mice that survived, observed over 6 months from tumor inoculation

CC[C@]1(O)C[C@@H]2CN(CCc3c([nH]c4ccccc34)[C@@](C(=O)OC)(c3cc4c(cc3OC)N(C)[C@H]3[C@@](O)(C(N)=O)[C@H](O)[C@]5(CC)C=CCN6CC[C@]43[C@@H]65)C2)C1 [Group 2VDS, vindesine]
Number of live animals remaining in the groups after 30 days of treatment [1, 5]: 30 | Number of live animals remaining in the groups after 30 days of treatment [1, 6]: 30 | Number of live animals remaining in the groups after 30 days of treatment [1, 7]: 27 | Number of live animals remaining in the groups after 30 days of treatment [1, 8]: 27 | Number of live animals remaining in the groups after 30 days of treatment [1, 9]: 11 | Number of live animals remaining in the groups after 30 days of treatment [1, 10]: 0 | Number of live animals remaining in the groups after 30 days of treatment [1, 11]: 0 | survival time of mice bearing pancreatic cancer cells ([1]; BALB/c mice, 30 days of treatment, from injection of tumor cells): all died after four months | mean weight of mice and standard deviation [1, 12]: all animals dead | mean weight of tumor nodules and standard deviation [1, 12]: all animals dead

CO[C@@]12[C@H](COC(N)=O)C3=C(C(=O)C(C)=C(N)C3=O)N1C[C@@H]1N[C@@H]12 [Group MMC, mitomycin C]
mean weight of mice and standard deviation [2]: 18.9 ± 3.4 g | mean weight of tumor nodules and standard deviation [2]: 1.37 ± 0.7 mg | Number of live animals remaining in the groups after 30 days of treatment [3, 5]: 30 | Number of live animals remaining in the groups after 30 days of treatment [3, 6]: 27 | Number of live animals remaining in the groups after 30 days of treatment [3, 7]: 21 | Number of live animals remaining in the groups after 30 days of treatment [3, 8]: 7 | Number of live animals remaining in the groups after 30 days of treatment [3, 9]: 0 | Number of live animals remaining in the groups after 30 days of treatment [3, 10]: 0 | Number of live animals remaining in the groups after 30 days of treatment [3, 11]: 0 | survival time of mice bearing pancreatic cancer cells ([3]; kun ming mice, 30 days of treatment, from injection of tumor cells): all died after four months | mean weight of mice and standard deviation [3, 12]: all animals dead | mean weight of tumor nodules and standard deviation [3, 12]: all animals dead | mean weight of mice and standard deviation [4]: 18.3 ± 1.5 g | mean weight of tumor nodules and standard deviation [4]: 2.8 ± 1.2 g
